Values quoted from earlier work as cited in patent publication US6682694B2, “Uncomplexed cyclodextrin solutions for odor control on inanimate surfaces” (The Procter & Gamble Company, priority 1994, dated 2004).

Conditions: for water solubility: in water

SMILES	water solubility	solubility in water
OCCOc1ccccc1 [2-phenoxyethanol]	about 2.67%	–
OCCc1ccccc1 [2-phenylethanol]	about 2%	–
O=[N+]([O-])C1(Br)COCOC1 [Bronidox L, 5-bromo-5-nitro-1,3-dioxane]	about 0.46%	–
O=[N+]([O-])C(Br)(CO)CO [Bronopol, 2-bromo-2-nitropropane-1,3-diol]	about 25%	–
CC1(C)C(=O)N(CO)C(=O)N1CO [DMDM hydantoin, 1,3-bis(hydroxymethyl)-5,5-dimethyl-2,4-imidazolidinedione]	more than 50%	–
ClC=CC[N+]12CN3CN(CN(C3)C1)C2.[Cl-] [Dowicil 200, 1-(3-Chlorallyl)-3,5,7-triaza-1-azoniaadamantane chloride]	–	freely soluble in water
OCc1ccccc1 [benzyl alcohol]	about 4%	–
[H]/N=C(\N/C(=N/[H])NCCCCCCNC(=N)NC(=N)Nc1ccc(Cl)cc1)Nc1ccc(Cl)cc1 [chlorhexidine diacetate, 1,1′-hexamethylene bis(5-(p-chlorophenyl)biguanide), reference compound]	about 1.8%	–
[H]/N=C(\N/C(=N/[H])NCCCCCCNC(=N)NC(=N)Nc1ccc(Cl)cc1)Nc1ccc(Cl)cc1 [chlorhexidine digluconate, 1,1′-hexamethylene bis(5-(p-chlorophenyl)biguanide), reference compound]	about 70%	–
CC(C)(O)C(Cl)(Cl)Cl [chlorobutanol, 1,1,1-Trichloro-2-methylpropan-2-ol, reference compound]	about 0.8%	–
[Na+].[O-][n+]1ccccc1[S-] [sodium pyrithione]	about 50%	–
